Measured values as given in US20060079453A1, “Hla binding peptides and their uses” (priority 2002, published 2006).

Tests used:
Test in all cases: biochemical
Type in all cases: binding
HLA-DR DRB1*0802 (DR8) = HLA-DR DRB1*0802 (DR8) (Homo sapiens, UniProt P01903+P01911, A100R/A103L/A169T/F76Y/H45Y/I96F/K41T/L162R/M171V/P40S/Q125H/Q178H/Q39Y/Q99D/R218S/R42G/S66Y/V115G/W38E)
HLA-DR DRB1*0101 (DR1) = HLA-DR DRB1*0101 (DR1) (Homo sapiens, UniProt P01903+P01911, A100R/D57E/F55L/F60I/F76Y/I96L/L162R/M171V/P40L/Q125E/R42F/V115G/Y59C); details: DRB1 *0101
HLA-DR DRB1*1302 (DR13) = HLA-DR DRB1*1302 (DR13) (Homo sapiens, UniProt P01903+P01911, A100E/A169T/K41T/L162R/M171V/P40S/Q125H/Q178H/Q39Y/Q99D/R42S/S66N/T262R/V115G/W38E/Y61H); details: DRBI *1302
Chain of HLA-DR DRB1*1302 (DR13) (P01903 26-254 limits assumed, other chains not shown): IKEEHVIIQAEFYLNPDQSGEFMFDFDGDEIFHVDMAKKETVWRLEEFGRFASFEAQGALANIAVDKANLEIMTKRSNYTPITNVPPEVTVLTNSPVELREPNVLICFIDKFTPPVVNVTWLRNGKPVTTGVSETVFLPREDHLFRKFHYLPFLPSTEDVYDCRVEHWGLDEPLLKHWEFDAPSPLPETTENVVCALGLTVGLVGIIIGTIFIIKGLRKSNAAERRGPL

HLA-DR DRB1*1101 (DR11) = HLA-DR DRB1*1101 (DR11) (Homo sapiens, UniProt P01903+P01911, A100R/A169T/A87E/I96F/K41T/L162R/M171V/P40S/Q125H/Q178H/Q39Y/Q99D/R42S/S66Y/T262R/V115G/W38E); details: DRB1 *1101
Chain of HLA-DR DRB1*1101 (DR11) (P01903 26-254 limits assumed, other chains not shown): as above

HLA-DR DRB1*0301 (DR3) = HLA-DR DRB1*0301 (DR3) (Homo sapiens, UniProt P01903+P01911, A100K/A102G/A103R/A169T/F55Y/I96L/K41T/L162R/M171V/P40S/Q125H/Q178H/Q39Y/R42S/S66N/T106N/T262R/W38E/Y61H)
Chain of HLA-DR DRB1*0301 (DR3) (P01903 26-254 limits assumed, other chains not shown): as above

HLA-DR DRB1*0901 (DR9) = HLA-DR DRB1*0901 (DR9) (Homo sapiens, UniProt P01903+P01911, A100R/A103E/D57H/D86V/F55Y/F60I/F76Y/I96F/K127E/L162R/M171V/P40D/Q125H/Q99R/R33Q/R42F/S133A/S66N/T210M/V115G/W38K/Y107V/Y59G/Y89S); details: DRB1 *0901
HLA-DR DRB1*0701 (DR7) = HLA-DR DRB1*0701 (DR7) (Homo sapiens, UniProt P01903+P01911, A100R/A102G/A103Q/D57E/D86V/E43K/F76Y/K127E/L162R/M171V/P40G/Q125H/Q99D/R33Q/R42Y/R54Q/S133A/S66F/T210M/V115G/Y107V/Y59L/Y89S); details: DRB1 *0701
HLA-DR DRB3*0101 (DR52) = HLA-DR DRB3*0101 (DR52) (Homo sapiens, UniProt P01903+P79483)
HLA-DR DRB4*0101 (DR53) = HLA-DR DRB4*0101 (DR53) (Homo sapiens, UniProt P01903+P13762, G164S); details: DRB4 *0101
HLA-DR DRB1*1501 (DR15) = HLA-DR DRB1*1501 (DR15) (Homo sapiens, UniProt P01903+P01911); details: DRBI *1501
HLA-DR DRB1*0401 (DR4) = HLA-DR DRB1*0401 (DR4) (Homo sapiens, UniProt P01903+P01911, A100K/A169T/F76Y/I96L/K127E/L162R/M171V/N62H/P40V/Q125Y/R42H/S133A/S149N/S66Y/V115G/V209L/W38E); details: DRB1 *0401
HLA-DR DRB5*0101 (DR51) = HLA-DR DRB5*0101 (DR51) (Homo sapiens, UniProt P01903+Q30154); details: DRB5 *0101

Row | Compound | IC50 (HLA-DR DRB1*0802 (DR8)) [nM] | IC50 (HLA-DR DRB1*0101 (DR1)) [nM] | IC50 (HLA-DR DRB1*1302 (DR13)) [nM] | IC50 (HLA-DR DRB1*1101 (DR11)) [nM] | IC50 (HLA-DR DRB1*0301 (DR3)) [nM] | IC50 (HLA-DR DRB1*0901 (DR9)) [nM] | IC50 (HLA-DR DRB1*0701 (DR7)) [nM] | IC50 (HLA-DR DRB3*0101 (DR52)) [nM] | IC50 (HLA-DR DRB4*0101 (DR53)) [nM] | IC50 (HLA-DR DRB1*1501 (DR15)) [nM] | IC50 (HLA-DR DRB1*0401 (DR4)) [nM] | IC50 (HLA-DR DRB5*0101 (DR51)) [nM]
1 | CC(C)C[C@H](NC(=O)[C@H](CCC(N)=O)NC(=O)[C@H](CC(=O)O)NC(=O)[C@H](CCC(=O)O)NC(=O)[C@H](CO)NC(=O)[C@H](CC(C)C)NC(=O)[C@@H]1CCCN1C(=O)[C@@H](NC(=O)[C@@H](N)[C@@H](C)O)C(C)C)C(=O)N[C@@H](CC(C)C)C(=O)N[C@@H](Cc1ccc(O)cc1)C(=O)N[C@@H](CC(C)C)C(=O)N1CCC[C@H]1C(=O)N[C@@H](Cc1ccccc1)C(=O)N[C@@H](CCCNC(=N)N)C(=O)O | 42200 | 4010 | 5300 | 26500 | 332 | 37400 | 11300 | 4320 | 872 | > 2370 | – | –
2 | CSCC[C@H](NC(=O)CNC(=O)CNC(=O)[C@H](CCCNC(=N)N)NC(=O)[C@@H](NC(=O)[C@H](CCC(N)=O)NC(=O)[C@H](C)NC(=O)[C@@H](NC(=O)[C@@H](NC(=O)[C@H](CC(C)C)NC(=O)[C@H](Cc1c[nH]cn1)NC(=O)[C@H](Cc1ccc(O)cc1)NC(=O)[C@@H](N)CCCCN)[C@@H](C)O)C(C)C)C(C)C)C(=O)N[C@H](C(=O)N[C@@H](Cc1ccccc1)C(=O)O)C(C)C | 1520 | 137 | 193 | 859 | 33700 | 5860 | 228 | > 21900 | – | 1220 | 806 | 86
3 | CC(C)C[C@H](NC(=O)[C@H](CO)NC(=O)[C@H](CC(C)C)NC(=O)[C@H](CO)NC(=O)[C@H](C)NC(=O)[C@H](C)NC(=O)[C@H](CCCNC(=N)N)NC(=O)[C@H](C)NC(=O)[C@H](CC(C)C)NC(=O)[C@H](CC(C)C)NC(=O)[C@H](CC(C)C)NC(=O)[C@@H]1CCCN1C(=O)[C@H](C)N)C(=O)NCC(=O)N[C@@H](Cc1ccccc1)C(=O)O | 76 | 8.4 | 12 | 322 | 56300 | 124 | 59 | 13400 | 59 | 91 | – | –
4 | CC(C)C[C@H](NC(=O)CNC(=O)[C@H](Cc1ccccc1)NC(=O)[C@H](CCC(=O)O)NC(=O)[C@H](CCCCN)NC(=O)[C@@H](N)Cc1c[nH]c2ccccc12)C(=O)N[C@@H](CC(=O)O)C(=O)N[C@@H](CO)C(=O)N[C@H](C(=O)N[C@@H](CCC(=O)O)C(=O)N[C@@H](CC(C)C)C(=O)N[C@@H](C)C(=O)N[C@@H](Cc1c[nH]cn1)C(=O)N[C@@H](Cc1ccc(O)cc1)C(=O)N[C@@H](CC(=O)O)C(=O)O)C(C)C | 20000 | 1140 | 8410 | 4930 | 85 | 7050 | – | 829 | 5920 | 22800 | 96 | 89400
5 | CSCC[C@H](NC(=O)[C@H](CC(C)C)NC(=O)[C@H](CCC(N)=O)NC(=O)[C@H](CC(=O)O)NC(=O)[C@H](CC(N)=O)NC(=O)[C@H](CCSC)NC(=O)[C@H](CCSC)NC(=O)[C@H](CCCNC(=N)N)NC(=O)[C@H](CC(C)C)NC(=O)[C@@H](N)C(C)C)C(=O)N[C@@H](Cc1ccccc1)C(=O)N[C@@H](CC(C)C)C(=O)N[C@@H](CCC(=O)O)C(=O)N[C@@H](CCCNC(=N)N)C(=O)N[C@@H](C)C(=O)O | 1700 | – | 130 | 2350 | 183 | 10700 | – | 98 | 88 | 127 | 29 | 85
6 | CC[C@H](C)[C@H](NC(=O)[C@@H]1CCCN1C(=O)[C@H](CC(N)=O)NC(=O)[C@@H](N)Cc1c[nH]c2ccccc12)C(=O)N[C@@H](CC(C)C)C(=O)N[C@@H](CC(C)C)C(=O)N[C@@H](Cc1c[nH]c2ccccc12)C(=O)N[C@@H](CCC(N)=O)C(=O)N1CCC[C@H]1C(=O)N[C@H](C(=O)N1CCC[C@H]1C(=O)N[C@H](C(=O)N[C@@H](Cc1c[nH]cn1)C(=O)N[C@H](C(=O)N[C@H](C(=O)O)C(C)C)[C@@H](C)O)C(C)C)[C@@H](C)CC | 115000 | 208 | 2260 | 19600 | > 81800 | 607 | – | > 8830 | 81 | 14 | 695 | ≥ 100000
